Measurements: patent US10144742B2 (Millennium Pharmaceuticals, Inc., priority 2014, dated 2018)
Like-named read-outs stand apart in the source and are kept apart here.

Tests used:
[1] = molecular target: hNAMPT protein (Homo sapiens (Human), UniProt P43490); assay: NAMPT enzyme assay (TR-FRET/HTRF, BodiPY ligand, anti 6His-Tb); type: binding; settings: for IC50: NAMPT IC50 range class, read-out: IC50; for inhibition at 1 µM: read-out: Percent Inhibition
Method in brief: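 Compound or DMSO was incubated for 1 h at room temperature, protected from light, with BodiPY ligand and hNAMPT labelled by terbium anti-6His antibody. The 520 nm to 486 nm emission ratio after 320 nm excitation gave inhibition versus vehicle, from which concentration-response curves yielded IC50.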

[2] = system: PC3 cells; assay: PC3 growth inhibition (Cell-titer glo, 72 hours); type: cell-based; settings: Homo sapiens, read-out: Percent Inhibition (PC3 growth inhibition); for inhibition at 1.667 µM: compound concentration 1.667 μM
Method in brief: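 Compounds in AIM serum-free medium were applied for 72 h at 37 °C, 5% CO2 to PC3 cells plated overnight from RPMI1640 culture. Luminescence after 10 min CellTiter-Glo, normalised to DMSO, gave % viability at 1 μM or 1.667 μM, or GI50/LD50.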

[3] = PC-3, compound concentration 1 μM, PC3 cells, 72 hours, Cell-titer glo
[4] = PC-3, PC3 cells, 72 hours, Cell-titer glo

hNAMPT protein, sequence (P43490 whole entry): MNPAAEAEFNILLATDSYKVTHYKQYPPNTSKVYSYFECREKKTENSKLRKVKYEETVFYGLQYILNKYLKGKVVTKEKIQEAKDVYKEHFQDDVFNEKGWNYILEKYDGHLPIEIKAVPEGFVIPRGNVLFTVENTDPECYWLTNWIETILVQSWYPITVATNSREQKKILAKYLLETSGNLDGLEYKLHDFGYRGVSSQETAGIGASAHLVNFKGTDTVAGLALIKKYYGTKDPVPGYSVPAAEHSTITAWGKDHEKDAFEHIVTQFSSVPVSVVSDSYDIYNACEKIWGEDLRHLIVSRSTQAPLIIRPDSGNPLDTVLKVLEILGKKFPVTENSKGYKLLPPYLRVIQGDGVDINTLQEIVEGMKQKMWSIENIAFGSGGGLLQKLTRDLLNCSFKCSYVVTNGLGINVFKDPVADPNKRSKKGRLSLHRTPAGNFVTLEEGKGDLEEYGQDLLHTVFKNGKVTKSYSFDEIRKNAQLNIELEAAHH

Structure (SMILES)	IC50 [1] [nM]	inhibition at 1 µM ([1]; compound concentration 1 μM) [%]	inhibition at 1 µM [2, 3] [%]	inhibition at 1.667 µM [2, 4] [%]	inhibition at 1 µM [1] [%]	inhibition at 1 µM ([2]; PC-3, 72 h) [%]
O=C(NCc1ccccn1)c1ccc2nc(-c3ccccc3)c(-c3ccccc3)nc2c1 [Compound I-76, 2,3-diphenyl-N-(pyridin-2-ylmethyl)quinoxaline-6-carboxamide]	2000 to 10000	29	92			
O=C(NCCCc1nccs1)c1ccc2nc(N3CCC(O)CC3)c(-c3ccc(F)cc3)nc2c1 [Compound I-77, 3-(4-Fluorophenyl)-2-(4-hydroxypiperidin-1-yl)-N-[3-(1,3-thiazol-2-yl)propyl]quinoxaline-6-carboxamide]	100 to 500	86		> 99		
COC1CCN(c2nc3ccc(C(=O)NCCCc4ncc[nH]4)cc3nc2-c2ccc(F)cc2)CC1 [Compound I-78, 3-(4-fluorophenyl)-N-[3-(1H-imidazol-2-yl)propyl]-2-(4-methoxypiperidin-1-yl)quinoxaline-6-carboxamide]	< 100	> 99		2		
O=C(NCCCn1ccnc1)c1ccc2nc(-c3ccccc3)c(-c3ccc(Cl)cc3)nc2c1 [Compound I-79, 3-(4-chlorophenyl)-N-[3-(1H-imidazol-1-yl)propyl]-2-phenylquinoxaline-6-carboxamide]	< 100	93	-8			
O=C(NCCCn1ccnc1)c1ccc2nc(Oc3ccccc3)c(-c3ccccc3)nc2c1 [Compound I-80, N-[3-(1H-Imidazol-1-yl)propyl]-2-phenoxy-3-phenylquinoxaline-6-carboxamide]	500 to 1000		1		65	
CN1CCN(c2nc3ccc(C(=O)NCCCn4ccnc4)cc3nc2-c2ccccc2)CC1=O [Compound I-81, N-[3-(1H-imidazol-1-yl)propyl]-2-(4-methyl-3-oxopiperazin-1-yl)-3-phenylquinoxaline-6-carboxamide]	500 to 1000	63	-7			
Cn1cncc1CCNC(=O)c1ccc2nc(N3CCC(N4CCOCC4)CC3)c(-c3ccc(F)cc3)nc2c1 [Compound I-82, 3-(4-Fluorophenyl)-N-[2-(1-methyl-1H-imidazol-5-yl)ethyl]-2-[4-(morpholin-4-yl)piperidin-1-yl]quinoxaline-6-carboxamide]	< 100	98		2		
O=C(NCCn1cccn1)c1ccc2nc(-c3ccc(F)cc3)c(-c3ccc(F)cc3)nc2c1 [Compound I-83, 2,3-bis(4-fluorophenyl)-N-[2-(1H-pyrazol-1-yl)ethyl]quinoxaline-6-carboxamide]	2000 to 10000	33	96			
CN(CCc1cccnc1)C(=O)c1ccc2nc(-c3ccc(F)cc3)c(-c3ccc(F)cc3)nc2c1 [Compound I-84, 2,3-bis(4-fluorophenyl)-N-methyl-N-[2-(pyridin-3-yl)ethyl]quinoxaline-6-carboxamide]	2000 to 10000	17	85			
CC(C)(C)OC(=O)NCc1cccc(-c2nc3cc(C(=O)NCCCn4ccnc4)ccc3nc2-c2ccccc2)c1 [Compound I-85, tert-Butyl [3-(7-{[3-(1H-imidazol-1-yl)propyl]carbamoyl}-3-phenylquinoxalin-2-yl)benzyl]carbamate]	2000 to 10000				25	8
O=C(NCCOc1cccnc1)c1ccc2nc(Cl)c(-c3ccc(F)cc3)nc2c1 [Compound I-86, 2-chloro-3-(4-fluorophenyl)-N-[2-(pyridin-3-yloxy)ethyl]quinoxaline-6-carboxamide]	< 100	62		3		
O=C(NCCCn1ccnc1)c1ccc2nc(-c3ccccc3)c(N3CCCC(O)C3)nc2c1 (stereo not drawn) [Compound I-87, 3-(3-hydroxypiperidin-1-yl)-N-[3-(1H-imidazol-1-yl)propyl]-2-phenylquinoxaline-6-carboxamide]	1000 to 2000	39	-7			
O=C(NCCCn1ccnc1)c1ccc2nc(CN3CCOCC3)c(-c3ccccc3)nc2c1 [Compound I-88, N-[3-(1H-imidazol-1-yl)propyl]-2-(morpholin-4-ylmethyl)-3-phenylquinoxaline-6-carboxamide]	1000 to 2000	41	-7			
NS(=O)(=O)c1cccc(-c2nc3ccc(C(=O)NCCCn4ccnc4)cc3nc2-c2ccccc2)c1 [Compound I-89, N-[3-(1H-imidazol-1-yl)propyl]-3-phenyl-2-(3-sulfamoylphenyl)quinoxaline-6-carboxamide]	100 to 500	68	-7			
O=C(NCCCn1ccnc1)c1ccc2nc(N3CCC(O)C3)c(-c3ccccc3)nc2c1 (stereo not drawn) [Compound I-90, 2-(3-hydroxypyrrolidin-1-yl)-N-[3-(1H-imidazol-1-yl)propyl]-3-phenylquinoxaline-6-carboxamide]	500 to 1000	54	-7			
COc1cccc(-c2nc3cc(C(=O)NCCCc4ncc[nH]4)ccc3nc2N2CCC(N3CCOCC3)CC2)c1 [Compound I-91, N-[3-(1H-imidazol-2-yl)propyl]-3-(3-methoxyphenyl)-2-[4-(morpholin-4-yl)piperidin-1-yl]quinoxaline-6-carboxamide]	< 100	99		2		
O=C(NCCCn1ccnc1)c1ccc2nc(-c3ccccn3)c(-c3ccccc3)nc2c1 [Compound I-92, N-[3-(1H-imidazol-1-yl)propyl]-3-phenyl-2-(pyridin-2-yl)quinoxaline-6-carboxamide]	1000 to 2000	48	-7			
O=C(NCCc1cccnc1)c1ccc2nc(-c3ccccc3)c(-c3ccccc3)nc2c1 [Compound I-93, 2,3-diphenyl-N-[2-(pyridin-3-yl)ethyl]quinoxaline-6-carboxamide]	500 to 1000	52	15			
O=C(NCCCc1cn[nH]c1)c1ccc2nc(N3CCCCC3)c(-c3ccc(F)cc3)nc2c1 [Compound I-94, 3-(4-fluorophenyl)-2-(piperidin-1-yl)-N-[3-(1H-pyrazol-4-yl)propyl]quinoxaline-6-carboxamide]	< 100	92		34		
O=C(NCCCn1ccnc1)c1ccc2nc(-c3ccccc3)c(-c3cccc(OC(F)(F)F)c3)nc2c1 [Compound I-95, N-[3-(1H-imidazol-1-yl)propyl]-2-phenyl-3-[3-(trifluoromethoxy)phenyl]quinoxaline-6-carboxamide]	500 to 1000	61	1			
O=C(NCCCn1ccnc1)c1ccc2nc(N3CCOCC3)c(-c3ccccc3)nc2c1 [Compound I-96, N-[3-(1H-imidazol-1-yl)propyl]-2-(morpholin-4-yl)-3-phenylquinoxaline-6-carboxamide]	100 to 500	82	0			
O=C(NCCCn1ccnc1)c1ccc2nc(-c3ccccc3)c(-c3ccc4[nH]ccc4c3)nc2c1 [Compound I-97, N-[3-(1H-imidazol-1-yl)propyl]-3-(1H-indol-5-yl)-2-phenylquinoxaline-6-carboxamide]	500 to 1000	58	1			
COc1ccc(-c2nc3ccc(C(=O)NCCCn4ccnc4)cc3nc2-c2ccccc2)cc1 [Compound I-99, N-[3-(1H-imidazol-1-yl)propyl]-2-(4-methoxyphenyl)-3-phenylquinoxaline-6-carboxamide]	100 to 500	75	-8			
O=C(NCCCn1ccnc1)c1ccc2nc(N3CCCC(O)C3)c(-c3ccccc3)nc2c1 (stereo not drawn) [Compound I-100, 2-(3-hydroxypiperidin-1-yl)-N-[3-(1H-imidazol-1-yl)propyl]-3-phenylquinoxaline-6-carboxamide]	100 to 500	85	-7			
CS(=O)(=O)C1CCN(c2nc3cc(C(=O)NCCCn4ccnc4)ccc3nc2-c2ccccc2)C1 (stereo not drawn) [Compound I-101, N-[3-(1H-imidazol-1-yl)propyl]-3-[3-(methylsulfonyl)pyrrolidin-1-yl]-2-phenylquinoxaline-6-carboxamide]	2000 to 10000	16	7			
O=C(NCCc1ncc[nH]1)c1ccc2nc(Cl)c(-c3ccc(F)cc3)nc2c1 [Compound I-102, 2-chloro-3-(4-fluorophenyl)-N-[2-(1H-imidazol-2-yl)ethyl]quinoxaline-6-carboxamide]	500 to 1000	38		> 99		
O=C(NCCCc1ccnnc1)c1ccc2nc(N3CCCCC3)c(-c3ccc(F)cc3)nc2c1 [Compound I-103, 3-(4-fluorophenyl)-2-(piperidin-1-yl)-N-[3-(pyridazin-4-yl)propyl]quinoxaline-6-carboxamide]	< 100	96		58		
O=C(NCCCc1ncc[nH]1)c1ccc2nc(N3CCOCC3)c(-c3ccc(Cl)cc3)nc2c1 [Compound I-104, 3-(4-chlorophenyl)-N-[3-(1H-imidazol-2-yl)propyl]-2-(morpholin-4-yl)quinoxaline-6-carboxamide]	< 100	100		2		
